# In PMC9182383, “Rational Design of Plant Hairpin-like Peptide EcAMP1: Structural–Functional Correlations to Reveal Antibacterial and Antifungal Activity” (Molecules, 2022):
# Where two headings read alike, the source gives them in different places. Positions of bridges follow the written chain, without caps; N, C: chain ends. Residues, ends and D or L forms follow the SMILES beside them.
# Tests used:
# [1] = tested on: Bipolaris sorokiniana; details: 48 h
# [2] = tested on: P. aeruginosa; assay: Antibacterial microdilution assay; assay type: cell-based; details: CA-MHB, 37 °C 48 h; for Antibacterial activity against P. aeruginosa: concentrations up to 80 µM
# [3] = tested on: C. albicans; details: 48 h
# [4] = tested on: E. coli; assay: Antibacterial microdilution assay; assay type: cell-based, Escherichia coli; details: CA-MHB, 37 °C 48 h; for Antibacterial activity against E. coli: concentrations up to 80 µM
# [5] = tested on: Aspergillus niger; details: 48 h
# [6] = tested on: filamentous fungi and oomycetes; details: cited from earlier work
# [7] = tested on: S. aureus
# [8] = tested on: F. graminearum
# [9] = tested on: Alternaria alternata; details: 48 h
# [10] = tested on: F. solani; details: 48 h
# [11] = tested on: Fusarium oxysporum; details: 48 h
# [12] = Table S1, microdilution, YPDB, OD600, growth control +, negative control -
# [13] = read-out: Antifungal activity IC50, F. graminearum, Table 1, native vs truncated forms, potato–dextrose broth, 10^4–10^5 conidia per mL, 25 °C 48 h, 50% inhibition of spore germination, light microscopy, three replicates
Compound,IC50 [1] [µM],Antibacterial activity against P. aeruginosa [2],"Growth of C. albicans at 1.25 µM peptide [3, 12]",Antibacterial activity against E. coli [4],IC50 [5] [µM],"IC50 [8, 13] [µM]",IC50 [9] [µM],IC50 [10] [µM],IC50 [11] [µM],IC50 ([8]; 48 h) [µM],other results
"CSCC[C@@H]1NC(=O)[C@@H]2CSSC[C@H](NC(=O)[C@H](CCC(=O)O)NC(=O)[C@H](CCC(N)=O)NC(=O)[C@H](C(C)C)NC(=O)[C@H](CCCNC(=N)N)NC(=O)[C@H](Cc3c[nH]c4ccccc34)NC(=O)[C@@H]3CCCN3C(=O)[C@H](CCC(=O)O)NC(=O)[C@H](CC(=O)O)NC(=O)[C@H](CCC(=O)O)NC(=O)[C@H](Cc3c[nH]cn3)NC(=O)[C@H](CCCNC(=N)N)NC(=O)[C@H](CCCNC(=N)N)NC1=O)C(=O)N[C@@H](C(C)C)C(=O)N[C@@H](CO)C(=O)N[C@@H](CCC(N)=O)C(=O)N[C@H](C(=O)N[C@@H](CCCNC(=N)N)C(=O)N[C@@H](CCCNC(=N)N)C(=O)N[C@@H](CCCNC(=N)N)C(=O)N[C@@H](CCCNC(=N)N)C(=O)NCC(=O)NCC(=O)NCC(=O)N[C@@H](CC(=O)O)C(=O)O)CSSC[C@H](NC(=O)[C@H](CO)NC(=O)CNC(=O)[C@H](CCCNC(=N)N)NC(=O)CNC(=O)[C@H](CO)NC(=O)CN)C(=O)N[C@@H](CCCNC(=N)N)C(=O)N[C@@H](CO)C(=O)N[C@@H](CCC(N)=O)C(=O)N2 [EcAMP1-WT] (H-GSGRGSCRSQCMRRHEDEPWRVQECVSQCRRRRGGGD-OH; disulfide 7-29, 11-25; N-terminus and C-terminus assumed)",25.7 ± 3.6,inactive,MIC99,inactive,> 32,6.8 ± 1,18.4 ± 2.7,,,,"IC50 [3]: 0.625 µM; Growth of C. albicans at 0.625 µM peptide ([3]; Table S1, 0.625 µM, microdilution, YPDB, OD600, growth control +, negative control -): MIC50; MIC99, almost complete suppression of C. albicans ([3]; microdilution, YPDB, range 0.625–80 µM, OD600): 1.25 µM; Number of microbes for which inhibition activity was registered [6]: 11; IC50 ([6]; read-out: IC50 against filamentous fungi and oomycetes): 4.5 to 18.2 µM; IC50 ([7]; 48 h): 5 µM; Growth of S. aureus at 5 µM peptide ([7]; Table S2, 5 µM, microdilution, CA-MHB, 37 °C 48 h, OD600, growth control +, negative control -): MIC50; Growth of S. aureus at 10 µM peptide ([7]; Table S2, 10 µM, microdilution, CA-MHB, 37 °C 48 h, OD600, growth control +, negative control -): MIC95; Growth of S. aureus at 20 µM peptide ([7]; Table S2, 20 µM, microdilution, CA-MHB, 37 °C 48 h, OD600, growth control +, negative control -): MIC99"
"CSCC[C@@H]1NC(=O)[C@@H]2CSSC[C@H](NC(=O)[C@H](CCC(=O)O)NC(=O)[C@H](CCC(N)=O)NC(=O)[C@H](C(C)C)NC(=O)[C@H](CCCNC(=N)N)NC(=O)[C@H](Cc3c[nH]c4ccccc34)NC(=O)[C@@H]3CCCN3C(=O)[C@H](CCC(=O)O)NC(=O)[C@H](CC(=O)O)NC(=O)[C@H](CCC(=O)O)NC(=O)[C@H](Cc3c[nH]cn3)NC(=O)[C@H](CCCNC(=N)N)NC(=O)[C@H](CCCNC(=N)N)NC1=O)C(=O)N[C@@H](C(C)C)C(=O)N[C@@H](CO)C(=O)N[C@@H](CCC(N)=O)C(=O)N[C@H](C(=O)O)CSSC[C@H](N)C(=O)N[C@@H](CCCNC(=N)N)C(=O)N[C@@H](CO)C(=O)N[C@@H](CCC(N)=O)C(=O)N2 [EcAMP1-X1] (H-CRSQCMRRHEDEPWRVQECVSQC-OH; disulfide 1-23, 5-19 (inferred); N-terminus assumed)",> 32,absolutely inactive,,absolutely inactive,> 32,9 ± 1.4,21.1 ± 2.4,6.9 ± 0.7,15.4 ± 1.1,,"Activity against C. albicans ([3]; microdilution, YPDB, concentrations up to 80 µM): absolutely inactive; Antibacterial activity against S. aureus ([7]; microdilution, CA-MHB, 37 °C 48 h, concentrations up to 80 µM): absolutely inactive"
CSCC[C@@H]1NC(=O)[C@@H](N)CSSC[C@@H](C(=O)O)NC(=O)[C@H](CCC(=O)O)NC(=O)[C@H](CCC(N)=O)NC(=O)[C@H](C(C)C)NC(=O)[C@H](CCCNC(=N)N)NC(=O)[C@H](Cc2c[nH]c3ccccc23)NC(=O)[C@@H]2CCCN2C(=O)[C@H](CCC(=O)O)NC(=O)[C@H](CC(=O)O)NC(=O)[C@H](CCC(=O)O)NC(=O)[C@H](Cc2c[nH]cn2)NC(=O)[C@H](CCCNC(=N)N)NC(=O)[C@H](CCCNC(=N)N)NC1=O [EcAMP1-X2] (H-CMRRHEDEPWRVQEC-OH; disulfide 1-15),> 32,,,,> 32,18.1 ± 2.1,> 32,11 ± 1.9,23.2 ± 2.6,,
"CSCC[C@@H]1NC(=O)[C@@H]2CSSC[C@H](NC(=O)[C@H](CCC(=O)O)NC(=O)[C@H](CCC(N)=O)NC(=O)[C@H](C(C)C)NC(=O)[C@H](CCCNC(=N)N)NC(=O)[C@H](C)NC(=O)[C@@H]3CCCN3C(=O)[C@H](CCC(=O)O)NC(=O)[C@H](CC(=O)O)NC(=O)[C@H](CCC(=O)O)NC(=O)[C@H](Cc3c[nH]cn3)NC(=O)[C@H](CCCNC(=N)N)NC(=O)[C@H](CCCNC(=N)N)NC1=O)C(=O)N[C@@H](C(C)C)C(=O)N[C@@H](CO)C(=O)N[C@@H](CCC(N)=O)C(=O)N[C@H](C(=O)N[C@@H](CCCNC(=N)N)C(=O)N[C@@H](CCCNC(=N)N)C(=O)N[C@@H](CCCNC(=N)N)C(=O)N[C@@H](CCCNC(=N)N)C(=O)NCC(=O)NCC(=O)NCC(=O)N[C@@H](CC(=O)O)C(=O)O)CSSC[C@H](NC(=O)[C@H](CO)NC(=O)CNC(=O)[C@H](CCCNC(=N)N)NC(=O)CNC(=O)[C@H](CO)NC(=O)CN)C(=O)N[C@@H](CCCNC(=N)N)C(=O)N[C@@H](CO)C(=O)N[C@@H](CCC(N)=O)C(=O)N2 [EcAMP1-X3] (H-GSGRGSCRSQCMRRHEDEPARVQECVSQCRRRRGGGD-OH; disulfide 7-29, 11-25; N-terminus and C-terminus assumed)",,,,,,,,8.6 ± 1.5,15 ± 2.1,9.9 ± 1.9,
"CSCC[C@@H]1NC(=O)[C@@H]2CSSC[C@H](NC(=O)[C@H](CCC(=O)O)NC(=O)[C@H](CCC(N)=O)NC(=O)[C@H](C(C)C)NC(=O)[C@H](CCCNC(=N)N)NC(=O)[C@H](Cc3c[nH]c4ccccc34)NC(=O)[C@@H]3CCCN3C(=O)[C@H](CCC(=O)O)NC(=O)[C@H](CC(=O)O)NC(=O)[C@H](CCC(=O)O)NC(=O)[C@H](Cc3c[nH]cn3)NC(=O)[C@H](CCCNC(=N)N)NC(=O)[C@H](CCCNC(=N)N)NC1=O)C(=O)N[C@@H](C(C)C)C(=O)N[C@@H](CO)C(=O)N[C@@H](CCC(N)=O)C(=O)N[C@H](C(=O)N[C@@H](CCCNC(=N)N)C(=O)N[C@@H](CCCNC(=N)N)C(=O)O)CSSC[C@H](NC(=O)[C@H](CO)NC(=O)CNC(=O)[C@H](CCCNC(=N)N)NC(=O)CNC(=O)[C@H](CO)NC(=O)CN)C(=O)N[C@@H](CCCNC(=N)N)C(=O)N[C@@H](CO)C(=O)N[C@@H](CCC(N)=O)C(=O)N2 [EcAMP1-X4] (H-GSGRGSCRSQCMRRHEDEPWRVQECVSQCRR-OH; disulfide 7-29, 11-25; N-terminus and C-terminus assumed)",,,,,,,,7.8 ± 0.7,15.8 ± 1.6,8.5 ± 1.2,
"LL37: linear α-helical antimicrobial peptide cathelicidin, positive control (LLGDFFRKSKEKIGKEFKRIVQRIKDFLRNLVPRTES; Antibacterial peptide LL-37; UniProt P49913 134-170, looked up) [reference compound]",,,MIC99,,,,,,,,"Growth of P. aeruginosa at 1.25 µM peptide ([2]; Table S4, 1.25 µM, OD600, growth control +, negative control -): MIC99; Growth of E. coli at 1.25 µM peptide ([4]; Table S3, 1.25 µM, OD600, growth control +, negative control -): MIC99; Growth of S. aureus at 0.625 µM peptide ([7]; Table S2, 0.625 µM, microdilution, CA-MHB, 37 °C 48 h, OD600, growth control +, negative control -): MIC50; Growth of S. aureus at 1.25 µM peptide ([7]; Table S2, 1.25 µM, microdilution, CA-MHB, 37 °C 48 h, OD600, growth control +, negative control -): MIC99"
